Consider 15 compounds from PubChem BioAssay (NCI).

Holding throughout (experiment): NCI anticancer screen, dose series, 48 h
Test [1] deals with COLO 205 colon.
The subject of test [2] is HCC-2998 colon.
Test [3] relates to HL-60(TB) leukemia.
For test [4], the system named is HS 578T breast.
The test system of test [5] is MCF7 breast.
Test [6] relates to MDA-MB-231 breast.
For test [7], the system named is SF-295 CNS.
The subject of test [8] is SK-OV-3 ovarian.
Test [9] has as its system UACC-257 melanoma.
Test [10] relates to BT-549 breast.

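Growth conditions: 96-well plates. Treatment: test compound, 48 hours, 5 concentrations. Analysis: linear interpolation between bracketing concentrations; unreached endpoints set to highest concentration. At the GI50, growth is halved. The concentration for full growth arrest is given as TGI.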

`Cc1ccc(C)c2c1C(O)(C#Cc1ccccc1)c1ccccc1C2(O)C#Cc1ccccc1` (configuration not stated): the GI50 was 2.01 µM in test [1]; 5.56 µM in test [2]; 4.04 µM in test [3]; 3.4 µM in [4]; 2.47 µM in [5]; 2.84 µM in [6]. Moreover, the values for the GI50 in [7], in test [8] and in test [9] were 2.91 µM, 3.44 µM and 2.54 µM, respectively. Besides, the TGI in test [1] was 6.48 µM; in test [2], over 100 µM; in test [3], over 100 µM; in [4], over 100 µM; in test [5], over 100 µM; in test [6], over 100 µM. Further, the TGI in test [7] was over 100 µM; in [8] it was over 100 µM; in test [9], 6.6 µM.
Consider `COCCCNC(=O)C1C(=O)N(CCCOC)C(=O)/C1=N\N` (configuration not stated), for which the TGI in [1], in test [2], in [3], in [7] and in [9] was over 100 µM throughout.
Take `C=C1C(=O)O[C@@H]2C[C@@H](C)[C@@H]3C=CC(=O)[C@@]3(C)[C@@H](OC(=O)CC(=O)O[C@H]3[C@@H]4C(=C)C(=O)O[C@@H]4C[C@@H](C)[C@@H]4C=CC(=O)[C@]43C)[C@H]12`: the TGI was found to be 0.161 µM in test [10]; 0.0403 µM in test [1]; 0.303 µM in test [2]; 0.21 µM in test [5]; 1.32 µM in test [6]; 0.302 µM in test [7]. The TGI in [8] came to 0.785 µM; in test [9] it was 0.0812 µM.
On to `Cc1cc2c(ccc3c(C)cc(=O)oc32)o1`, for which the TGI in test [1], in test [2], in test [7], in test [8] and in test [9] was over 100 µM throughout.
As for `C#Cc1cccc(N2C(=O)CCC2=O)c1`, the TGI in [1] is 24.8 µM; in test [2], 29.5 µM; in [3], 10.4 µM; in [4], 85.8 µM; in [5], 44.5 µM; in test [6] it was 44.6 µM. Further, the TGI in [7] worked out at 30.1 µM; in test [8], 43 µM; in [9] it was 29.9 µM.
On to `Nc1ccccc1C(=O)CC1OC(=O)c2ccccc21` (configuration not stated), for which the TGI is 90.5 µM in test [10]; over 100 µM in test [3]; over 100 µM in test [4]; over 100 µM in test [5]; over 100 µM in test [6]; over 100 µM in test [7]. For the same compound, the TGI in test [8] and in test [9] was over 100 µM throughout.
As to `CCC[CH2][Sn]1([CH2]CCC)[O]CC(Cc2ccccc2)[O]1` (configuration not stated), the GI50 is 2.55 µM in [1]; 7.25 µM in test [2]; 0.51 µM in test [3]; 2.1 µM in test [7]; 12 µM in test [8]; 1.88 µM in test [9]. Also, the TGI came to 5.7 µM in test [1]; 20.2 µM in test [2]; 2.31 µM in test [3]; 6.3 µM in [7]; 25.1 µM in test [8]; 5.27 µM in test [9].
Take `CN(C)CC(C)(C)C(=O)/C=C/c1ccc(/C=C/C(=O)C(C)(C)CN(C)C)cc1`: the TGI in test [1] was found to be 2.24 µM; in [2], 3.04 µM; in test [3], 4.17 µM; in [7] it was 3.84 µM; in [8] it was 8.12 µM; in test [9], 3.83 µM.
`COc1ccc(OC)c2c1CC(C(=O)O)(C(=O)O)CC2=O`: the TGI in test [2], in [3] and in test [8] was over 100 µM throughout.
In the case of `CCC[CH2][Sn]([CH2]CCC)([CH2]CCC)[O]c1ccc(Cl)cc1Cl`, the GI50 was 0.154 µM in test [10]; 0.16 µM in [1]; 0.0949 µM in test [2]; 0.129 µM in test [3]; 0.125 µM in test [5]; 0.122 µM in [6]. Moreover, the GI50 in [7] was 0.15 µM; in test [8], 0.137 µM; in [9] it was 0.154 µM. Further, the TGI came out at 0.315 µM in [10]; 0.31 µM in [1]; 0.226 µM in test [2]; 0.415 µM in [3]; 0.255 µM in [5]; 0.284 µM in test [6]. In addition, the results for the TGI in test [7], in test [8] and in test [9] were 0.307 µM, 0.276 µM and 0.305 µM, respectively.
In the case of `Cc1[nH]c2ccccc2c1C(=O)CC1(O)C(=O)Nc2ccccc21` (configuration not stated), the TGI in test [1], in [2], in test [3], in test [7], in test [8] and in test [9] was over 100 µM in each case.
For `O=C(CP(=O)(O)O)NC(CC(=O)OCc1ccccc1)C(=O)OCc1ccccc1` (configuration not stated), the TGI in test [1], in test [2], in [3], in test [4], in test [6] and in test [7] was over 100 µM each time. The TGI in test [8] and in [9] was over 100 µM throughout.
For `c1cc(N(CCn2cccn2)CCn2cccn2)cc(N(CCn2cccn2)CCn2cccn2)c1`, the TGI in [1], in [2], in test [3], in [7], in test [8] and in test [9] was over 100 µM throughout.
For `C=C(COC(C)=O)CC(OC(C)=O)c1ccccc1` (configuration not stated), the TGI in test [1], in test [2], in [3], in [7] and in [8] was over 100 µM each time.
For the compound `Cc1ccc(NC(=O)C2C(=O)N(c3ccc(C)cc3)C(=O)/C2=N\NC(N)=S)cc1` (configuration not stated), the TGI in test [1], in test [2], in test [7], in test [8] and in [9] was over 100 µM throughout.
